Experimental data taken from publication PMC5130624 (International journal for parasitology, 2016).
Like-named read-outs stand apart in the source and are kept apart here.

Legend:
recombinant TgCDPK1 = target: T1, recombinant TgCDPK1 (Toxoplasma gondii, UniProt Q9BJF5); assay: Recombinant TgCDPK1 thermal shift assay; assay type: binding; conditions: 20 µM BKI, 5% DMSO; change in Tm vs DMSO control
T1 sequence (Q9BJF5 1-507): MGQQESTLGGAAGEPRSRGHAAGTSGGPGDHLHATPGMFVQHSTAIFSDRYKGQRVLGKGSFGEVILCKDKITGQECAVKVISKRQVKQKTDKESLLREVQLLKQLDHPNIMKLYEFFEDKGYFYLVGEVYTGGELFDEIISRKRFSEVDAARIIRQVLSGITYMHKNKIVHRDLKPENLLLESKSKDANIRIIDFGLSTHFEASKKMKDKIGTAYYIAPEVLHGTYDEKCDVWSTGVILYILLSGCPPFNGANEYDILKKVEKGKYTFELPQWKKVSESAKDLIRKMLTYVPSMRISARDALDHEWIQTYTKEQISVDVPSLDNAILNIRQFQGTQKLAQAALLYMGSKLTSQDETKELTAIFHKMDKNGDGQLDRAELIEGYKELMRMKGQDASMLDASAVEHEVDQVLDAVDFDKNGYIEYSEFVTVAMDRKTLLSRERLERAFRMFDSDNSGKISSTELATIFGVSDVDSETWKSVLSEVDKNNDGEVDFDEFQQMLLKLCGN

recombinant SnCDPK1 [1] = assay: Recombinant SnCDPK1 thermal shift assay; assay type: binding, Sarcocystis neurona; conditions: 20 µM BKI, 5% DMSO; change in Tm vs DMSO control
[2] = system: SnCDPK1 in S. neurona cell lysate; assay: Cell lysate thermal shift assay; assay type: binding, Sarcocystis neurona; conditions: BKI 2 µM, 0.5% DMSO, Tm (compound)-Tm (DMSO)
[3] = bovine, in vivo
hERG = conditions: cited from earlier work
recombinant SnCDPK1 [4] = assay: SnCDPK1 kinase activity assay; assay type: biochemical, Sarcocystis neurona; conditions: read-out: SnCDPK1 enzyme IC50; inhibition of phosphorylation activity
[5] = Oral pharmacokinetics in newborn calves; conditions: unpublished data
TgCDPK1 = conditions: read-out: TgCDPK1 enzyme IC50; ref Johnson et al., 2012; cited from earlier work
[6] = system: S. neurona strain F9F merozoites; assay: S. neurona parasite growth assay in bovine turbinate cells; assay type: cell-based, Sarcocystis neurona

SMILES | Recombinant TgCDPK1 Thermal Shift (°C) at 20 µM (recombinant TgCDPK1) | Recombinant SnCDPK1 Thermal Shift (°C) at 20 µM (recombinant SnCDPK1 [1]) | S. neurona cell CDPK1 Thermal Stability (°C) [2] | Oral pharmacokinetics [3] | hERG inhibition (hERG; ref Vidadala et al., 2016) | IC50 (recombinant SnCDPK1 [4]) | hERG inhibition (hERG; ref Ojo et al., 2014a) | Oral pharmacokinetics [5] | IC50 (TgCDPK1) | EC50 ([6]; Sarcocystis neurona, in Bos taurus, 96 h, read-out: S. neurona cell growth EC50) | Effect of time of addition on growth inhibition ([6]; added at parasite inoculation (0 h) versus 2 h p.i., 4 days)
CCOc1ccc2cc(-c3nn(C(C)(C)C)c(N)c3C(N)=O)cnc2c1 [compound 1517] | 10.5 °C | 9.6 °C | 8.0 °C | outstanding oral pharmacokinetics | lack of hERG inhibition | < 0.01 µM |  |  |  |  | 
CCOc1ccc2cc(-c3nn(CC4CCN(C)CC4)c4ncnc(N)c34)ccc2c1 [compound 1294] |  |  | 2.7 °C |  |  | < 0.01 µM | has recently been shown to have hERG inhibition | outstanding oral pharmacokinetics | […] | 0.068 µM | more effective if added at the time of infection rather than 2 h later
